The structures appear in SMILES notation.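 Protocol summary: plate cells (96-well), add compound at 5 concentrations, incubate 48 h, interpolate endpoints linearly. GI50 = concentration required for 50% inhibition of growth. Definition used: TGI = concentration required for complete inhibition of growth.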 Where only a bound is given, the exact number is not on record here.

The first experiment has as its system HL-60(TB) leukemia. The experiment is described as follows: growth of human tumour cells (NCI), 48 h.
On to `O=C1/C(=C/c2ccccc2)N=C2Sc3c(nc[nH]c3=O)N12`, for which the TGI is greater than 100 µM.
On the same count and under the same terms, under `CCOC(=O)C1(C/C=C/CBr)Cc2ccccc2C1=O` (configuration not stated) stands greater than 100 µM.
Molecule `COc1ccc(COCCOCc2nc(C#N)c(N)o2)cc1` yielded a TGI greater than 100 µM.

The test system of a further experiment is MDA-N. The experiment is described as follows: growth of human tumour cells (NCI), 48 h.
For the molecule `CC(C)(C)OC(=O)N[C@H]1CCN(C2CCCCC2)C1=O`, the TGI is greater than 100 µM.
For `CC(=O)NC(Cc1ccc(O)cc1)C(=O)O` (configuration not stated), the TGI is greater than 100 µM.
The same measure, in the same setting: for `O=C(NC(=O)c1ccccc1[N+](=O)[O-])Nc1ccc(Oc2ncc(Br)cn2)c(Cl)c1` the value was less than 0.0159 µM; for `CC[C@@H]1CC[C@@H]2[C@H](CC[C@]3(C)[C@@H](OC(C)=O)CC[C@@H]23)[C@H]1COC(C)=O`, 62.2 µM; for `CC(=O)O[C@@H]1[C@H](C(C)C)[C@@H](OC(C)=O)C/C(C)=C/CC[C@]2(C)O[C@@H]12`, greater than 100 µM.
Same read-out and setting: under `CC(C)=CCc1c2c(c3occ(-c4ccc(O)cc4)c(=O)c3c1O)CC(C(C)(C)O)O2` (configuration not stated) stands 49.1 µM; under `O=C(N/N=C(/COc1ccc(Cl)cc1)N=Cc1ccncc1)c1ccncc1`, greater than 100 µM.
The same measure, in the same setting: for `C1CN(c2nc3c(nnc4nc(N5CCOCC5)sc43)s2)CCO1` the value was greater than 100 µM; for `COc1cc2nc3n(c(=O)c2cc1OC)-c1ccc([N+](=O)[O-])cc1C3=O`, greater than 100 µM.
`COCO[C@@H]1C[C@H]2C(=O)Nc3ccccc3C(=O)N2C1` came in with a TGI greater than 100 µM.
Still for that read-out and setting: under `O=[N+]([O-])c1ccc2c(c1)c(OCc1ccccc1)nn2Cc1ccccc1` stands greater than 100 µM.
The same measure, in the same setting: under `CCOC(=O)c1cn2c(n1)sc1cccc(C)c12` stands greater than 100 µM; under `CCOC(=O)C1(C/C=C/CBr)Cc2ccccc2C1=O` (configuration not stated), 6.37 µM; under `COc1ccc(-c2c(C#N)c(-c3ccc(C)cc3)n(NS(=O)(=O)c3ccc(C)cc3)c(=O)c2C#N)cc1`, greater than 100 µM.

The test system of the next experiment is SNB-75 CNS. The experiment is described as follows: growth of human tumour cells (NCI), 48 h.
Take `CC(C)(C)OC(=O)N[C@H]1CCN(C2CCCCC2)C1=O`: the TGI was greater than 100 µM.
The molecule `CC[C@@H]1CC[C@@H]2[C@H](CC[C@]3(C)[C@@H](OC(C)=O)CC[C@@H]23)[C@H]1COC(C)=O` displayed a TGI greater than 100 µM.
Take `CC(=O)O[C@@H]1[C@H](C(C)C)[C@@H](OC(C)=O)C/C(C)=C/CC[C@]2(C)O[C@@H]12`: the TGI was greater than 100 µM.
The same measure, in the same setting: for `C[C@@H]1CC[C@]2(C(=O)O)CC[C@]3(C)C(=CC[C@@H]4[C@@]5(C)CC[C@H](O)C(C)(C)[C@@H]5CC[C@]43C)[C@@H]2[C@]1(C)O` the value was 28.1 µM; for `CC(C)=CCc1c2c(c3occ(-c4ccc(O)cc4)c(=O)c3c1O)CC(C(C)(C)O)O2` (configuration not stated), 31.9 µM.
`COc1cc2nc3n(c(=O)c2cc1OC)-c1ccc([N+](=O)[O-])cc1C3=O` returned a TGI greater than 100 µM.
The same measure, in the same setting: for `c1ccc(N=c2sc3ccccc3nc2Nc2ccccc2)cc1` the value was greater than 100 µM.
The same measure, in the same setting: for `CCC(C(=O)O)c1ccc(OC)cc1` (configuration not stated) the value was greater than 100 µM.
The molecule `COCO[C@@H]1C[C@H]2C(=O)Nc3ccccc3C(=O)N2C1` yielded a TGI greater than 100 µM.
The same measure, in the same setting: under `CC(C)CCS(=O)(=O)OCCCCOS(=O)(=O)CCC(C)C` stands greater than 100 µM; under `CCCCC#C[I+]c1ccccc1`, 30.1 µM; under `O=C1CCCc2cc3c(cc21)CC1(Cc2ccccc2C1)C3`, 3 µM.
On the same count and under the same terms, under `O=C1/C(=C/c2ccccc2)N=C2Sc3c(nc[nH]c3=O)N12` stands greater than 100 µM.
On the same count and under the same terms, under `CCOC(=O)c1cn2c(n1)sc1cccc(C)c12` stands greater than 100 µM; under `CCOC(=O)C1(C/C=C/CBr)Cc2ccccc2C1=O` (configuration not stated), 31.9 µM.
The molecule `COc1ccc(-c2c(C#N)c(-c3ccc(C)cc3)n(NS(=O)(=O)c3ccc(C)cc3)c(=O)c2C#N)cc1` had a TGI greater than 100 µM.
The same measure, in the same setting: for `COc1ccc(COCCOCc2nc(C#N)c(N)o2)cc1` the value was greater than 100 µM; for `Cc1c(O)c(O)cc[n+]1C1OC(CO)C(O)C1O` (configuration not stated), greater than 100 µM.

Another experiment concerns OVCAR-5 ovarian. The experiment is described as follows: growth of human tumour cells (NCI), 48 h.
Molecule `CC(C)(C)OC(=O)N[C@H]1CCN(C2CCCCC2)C1=O` gave a TGI greater than 100 µM.
On the same count and under the same terms, for `CC(=O)NC(Cc1ccc(O)cc1)C(=O)O` (configuration not stated) the value was greater than 100 µM.
On the same count and under the same terms, for `O=C(NC(=O)c1ccccc1[N+](=O)[O-])Nc1ccc(Oc2ncc(Br)cn2)c(Cl)c1` the value was 0.0522 µM.
Same read-out and setting: under `CC[C@@H]1CC[C@@H]2[C@H](CC[C@]3(C)[C@@H](OC(C)=O)CC[C@@H]23)[C@H]1COC(C)=O` stands 73.8 µM; under `CC(=O)O[C@@H]1[C@H](C(C)C)[C@@H](OC(C)=O)C/C(C)=C/CC[C@]2(C)O[C@@H]12`, greater than 100 µM; under `C[C@@H]1CC[C@]2(C(=O)O)CC[C@]3(C)C(=CC[C@@H]4[C@@]5(C)CC[C@H](O)C(C)(C)[C@@H]5CC[C@]43C)[C@@H]2[C@]1(C)O`, 31.5 µM.
For the molecule `CC(C)=CCc1c2c(c3occ(-c4ccc(O)cc4)c(=O)c3c1O)CC(C(C)(C)O)O2` (configuration not stated), the TGI amounted to 33.8 µM.
On the same count and under the same terms, for `Nc1nc(Cl)cc(NCC2(CO)CC(=O)C2)n1` the value was greater than 100 µM; for `O=C(N/N=C(/COc1ccc(Cl)cc1)N=Cc1ccncc1)c1ccncc1`, greater than 100 µM.
On the same count and under the same terms, for `C1CN(c2nc3c(nnc4nc(N5CCOCC5)sc43)s2)CCO1` the value was greater than 100 µM.
On the same count and under the same terms, under `COc1cc2nc3n(c(=O)c2cc1OC)-c1ccc([N+](=O)[O-])cc1C3=O` stands greater than 100 µM; under `c1ccc(N=c2sc3ccccc3nc2Nc2ccccc2)cc1`, greater than 100 µM.
In turn, `CCC(C(=O)O)c1ccc(OC)cc1` (configuration not stated) returned a TGI greater than 100 µM.
Same read-out and setting: for `COCO[C@@H]1C[C@H]2C(=O)Nc3ccccc3C(=O)N2C1` the value was greater than 100 µM; for `CCCCC#C[I+]c1ccccc1`, 28 µM.
The same measure, in the same setting: under `O=[N+]([O-])c1ccc2c(c1)c(OCc1ccccc1)nn2Cc1ccccc1` stands greater than 100 µM; under `O=C1CCCc2cc3c(cc21)CC1(Cc2ccccc2C1)C3`, greater than 100 µM.
The same measure, in the same setting: under `O=C1/C(=C/c2ccccc2)N=C2Sc3c(nc[nH]c3=O)N12` stands greater than 100 µM.
`CCOC(=O)c1cn2c(n1)sc1cccc(C)c12` displayed a TGI greater than 100 µM.
Still for that read-out and setting: under `CCOC(=O)C1(C/C=C/CBr)Cc2ccccc2C1=O` (configuration not stated) stands 20.1 µM; under `COc1ccc(-c2c(C#N)c(-c3ccc(C)cc3)n(NS(=O)(=O)c3ccc(C)cc3)c(=O)c2C#N)cc1`, greater than 100 µM; under `COc1ccc(COCCOCc2nc(C#N)c(N)o2)cc1`, greater than 100 µM.
In turn, `Cc1c(O)c(O)cc[n+]1C1OC(CO)C(O)C1O` (configuration not stated) came in with a TGI greater than 100 µM.

For the next experiment, the system named is SR leukemia. The experiment is described as follows: growth of human tumour cells (NCI), 48 h.
`C[C@@H]1CC[C@]2(C(=O)O)CC[C@]3(C)C(=CC[C@@H]4[C@@]5(C)CC[C@H](O)C(C)(C)[C@@H]5CC[C@]43C)[C@@H]2[C@]1(C)O` returned a TGI of 30 µM.
The same measure, in the same setting: under `Nc1nc(Cl)cc(NCC2(CO)CC(=O)C2)n1` stands greater than 100 µM.
The same measure, in the same setting: for `c1ccc(N=c2sc3ccccc3nc2Nc2ccccc2)cc1` the value was greater than 100 µM; for `CCC(C(=O)O)c1ccc(OC)cc1` (configuration not stated), greater than 100 µM.
With `CC1CCC(n2c3cnccc3c3cnc(Nc4ccc5c(n4)CCN(C(=O)CO)C5)nc32)CC1` (configuration not stated), the GI50 was 0.239 µM and the TGI is greater than 100 µM.
In turn, `CC(C)CCS(=O)(=O)OCCCCOS(=O)(=O)CCC(C)C` came in with a TGI greater than 100 µM.
On the same count and under the same terms, for `CCCCC#C[I+]c1ccccc1` the value was 37.5 µM; for `O=C1/C(=C/c2ccccc2)N=C2Sc3c(nc[nH]c3=O)N12`, 68 µM.

The values above are taken from PubChem BioAssay (NCI).
